The values below come from patent US11186577B2, “Vasopressin receptor antagonists and products and methods related thereto” (BlackThorn Therapeutics, Inc., priority 2017, dated 2021).

pIC50: −log10 of the molar value. Read-outs that look alike come from different tables or passages of the source.

The target of assay [1] is human Arginine Vasopressin Receptor 1b (AVPR1b) (Homo sapiens (Human), UniProt P47901). Put plainly: Vasopressin V1B receptor antagonist assay (AVP-evoked calcium, FLIPR, CHO-AVPR1b cells). The assay is classed as cell-based. Here is the method:
The purpose of the assay is to determine the inhibitory effect of synthesized compounds on the Vasopressin V1b receptor. The assay was performed in Chinese Hamster Ovary (CHO) cells expressing the human Arginine Vasopressin Receptor 1b (AVPR1b). Arginine Vasopressin (AVP) evokes an increase in intracellular calcium in CHO-AVPR1b cells which is measured in a fluorescence assay on the FLIPR^TETRA using calcium sensitive dyes. Test compounds were assessed for their ability to affect the magnitude of the response to AVP, with antagonists showing a concentration-dependent reduction in the AVP-mediated fluorescence.
CHO-AVPR1b cells were maintained in routine culture in T175 Flasks at 37° C., 5% CO2. The growth medium consisted of Ham's F12 media supplemented with 10% v/v fetal bovine serum, 1× non-essential amino acids, and 0.4 mg/ml Geneticin G418.
Cells were harvested from T175 flasks when they were 80-90% confluent by first washing the cell monolayer with PBS and then dissociated using trypsin 0.05%/EDTA (3 mL for a T175 Flask). The flasks were incubated at room temperature until the cells detached. To the cell suspension, 10 ml of growth media was added and the cell density determined using the Vi-Cell automated cell counter. The cells were spun at 1000 rpm for 3 minutes, then the supernatant was carefully removed and discarded. The cell pellet was re-suspended at 6.0e^5 cells/ml in growth media. 25 μL of cells in growth media was dispensed into each well (15,000 cells per well) of a poly-D-lysine coated black, clear bottomed, 384-well plate. The plates were incubated at 37° C., 5% CO2 overnight.
At the start of each assay day, the potency of AVP is assessed and an EC80 concentration determined for subsequent compound profiling. Assays were performed using a two-step addition protocol on the FLIPR^TETRA; first addition of 5 μl of control or test compound at 10× final in assay buffer with 15 min incubation at 37° C., 5% CO2 followed by 10 μl of AVP at 6× final concentration in assay buffer. Changes in fluorescence were monitored for 3 min after both additions on the FLIPR^TETRA using 470-495 nm excitation and 515-575 nm emission wavelengths. The assay buffer consisted of HBSS (+Ca/+Mg) supplemented with 20 mM HEPES, and for the preparation of the AVP agonist only, 0.1% w/v bovine serum albumin. The assay was initiated by the removal of growth media from the cells and replacement with 45 μl of Calcium-6 dye (Molecular Devices) prepared at 1× in assay buffer. Cells were loaded with dye for 60-90 min at 37° C., 5% CO2 before initiation of the FLIPR^TETRA protocol. […] For compound profiling, test compounds were first serially diluted in DMSO (10-point curve, 1:3 dilutions) then diluted 33.3-fold in assay buffer prior to addition to the dye loaded cells on the FLIPR^TETRA. At the end of the incubation period 10 μl of AVP in assay buffer containing 0.1% BSA was added at the previously determined EC80 concentration.
In-plate controls for the assay include a Nelivaptan concentration-response curve as the reference V1b antagonist and an AVP concentration-response curve to confirm the reproducibility of the EC80 used for the compound challenge.

Assay [2] concerns the target human Arginine Vasopressin Receptor V2 (AVPR2) (Homo sapiens (Human), UniProt P30518). Put plainly: Vasopressin V2 receptor antagonist assay (cAMP TR-FRET, 1321N1 cells). The assay is classed as cell-based. The method, then: The purpose of the assay was to determine the inhibitory effect of synthesized compounds on the Vasopressin receptor 2. […] Arginine Vasopressin (AVP) evokes an increase in intracellular cAMP in these cells which is measured in a TR-FRET assay using a Europium cAMP tracer and ULight labelled antibody reagents contained in a LANCE Ultra cAMP kit (Perkin Elmer #TRF0263). […] Test compounds were assessed for their ability to affect the magnitude of the response to AVP, with antagonists showing a concentration-dependent decrease in the AVP-mediated reduction in TR-FRET signal.
cAMPZen V2 assay ready cells were thawed at 37° C. and resuspended directly from frozen in 9 ml growth medium consisting of DMEM supplemented with 10% v/v fetal bovine serum, 1× non-essential amino acids, and 1 mM sodium pyruvate. Cells were spun at 1000 rpm for 3 minutes and the supernatant was carefully removed and discarded. The pellet was resuspended in 5 ml stimulation buffer and the cell density determined using the Vi-Cell automated cell counter. The cell suspension was diluted to a 0.2×10^6/ml suspension ready for plating. […] Stimulation buffer consisted of HBSS (+Ca/+Mg) supplemented with 5 mM HEPES, 0.1% BSA stabiliser and 0.5 mM IBMX.
At the start of each assay day the potency of AVP was assessed and an EC80 concentration determined for subsequent compound profiling. Assays were performed by first an addition of 2.5 μl of control or test compound at 4× final concentration in stimulation buffer followed by 2.5 μl of AVP at 4× final concentration in stimulation buffer. After a 1 hour reaction, detection reagents were added by first an addition of 5 μl EU-cAMP tracer, followed by 5 μl ULight-anti-cAMP both diluted as per the manufacturer's instructions. […] For compound profiling, test compounds were dispensed by the Labcyte Echo (10-point curve, 1:3 dilutions) in a target 0.1 μl volume then diluted 750-fold in stimulation buffer containing 3% DMSO prior to addition to the cells. At the end of the incubation period, 2.5 μl of AVP in stimulation buffer was added at the previously determined EC80 concentration.
Background: In TR-FRET formats the signal depends on donor and acceptor labels being close together.

Chain of human Arginine Vasopressin Receptor 1b (AVPR1b) (P47901 whole entry): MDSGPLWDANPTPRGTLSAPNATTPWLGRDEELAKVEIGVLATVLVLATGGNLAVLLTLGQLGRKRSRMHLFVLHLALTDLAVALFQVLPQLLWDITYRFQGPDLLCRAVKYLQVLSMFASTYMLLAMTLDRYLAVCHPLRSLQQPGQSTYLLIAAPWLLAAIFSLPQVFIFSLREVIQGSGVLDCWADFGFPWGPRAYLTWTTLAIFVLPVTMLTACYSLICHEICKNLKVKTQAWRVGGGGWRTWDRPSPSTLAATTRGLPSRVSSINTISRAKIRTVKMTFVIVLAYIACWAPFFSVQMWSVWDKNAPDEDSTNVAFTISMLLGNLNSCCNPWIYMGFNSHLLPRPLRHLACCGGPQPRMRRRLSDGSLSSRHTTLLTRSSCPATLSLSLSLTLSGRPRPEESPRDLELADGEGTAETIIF
Chain of human Arginine Vasopressin Receptor V2 (AVPR2) (P30518 whole entry): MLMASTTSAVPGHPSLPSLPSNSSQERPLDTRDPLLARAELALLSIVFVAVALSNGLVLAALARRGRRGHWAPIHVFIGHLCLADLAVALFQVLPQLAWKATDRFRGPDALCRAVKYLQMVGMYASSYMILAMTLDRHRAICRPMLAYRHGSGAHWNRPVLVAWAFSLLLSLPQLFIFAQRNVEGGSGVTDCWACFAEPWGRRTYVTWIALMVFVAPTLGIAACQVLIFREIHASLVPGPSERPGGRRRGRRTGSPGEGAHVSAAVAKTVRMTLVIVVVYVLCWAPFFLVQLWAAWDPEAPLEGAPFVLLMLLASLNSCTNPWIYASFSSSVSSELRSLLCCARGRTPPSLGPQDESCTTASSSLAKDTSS

One may read the pIC50 as −log10 of the IC50, conventionally taken in molar units. Consider `COC(=O)N1Cc2cc(Cl)ccc2-n2c(C3CC4(C3)CN(c3ccc(F)cn3)C4)nnc2C1C` (single isomer, unassigned) [142A], for which the pIC50 in assay [1] and in assay [2] was less than 6.00 throughout. As for `COC(=O)N1Cc2cc(Cl)ccc2-n2c(C3CC4(C3)CN(c3ccc(F)cn3)C4)nnc2C1C` (single isomer, unassigned) [Cpd 142B], the negative-log IC50 (pIC50) in assay [1] and in assay [2] was less than 6.00 in each case. On to `CC(C)OC(=O)N1Cc2cc(Cl)ccc2-n2c(C3CC4(C3)CN(c3ccc(F)cn3)C4)nnc2C1C` (single isomer, unassigned) [Cpd 163A], for which the negative-log IC50 (pIC50) in assay [1] and in assay [2] was less than 6.00 throughout.

Turning to `COC(=O)N1Cc2cc(Cl)ccc2-n2c(C3CC4(C3)CN(c3cnccn3)C4)nnc2C1C` (single isomer, unassigned) [Cpd 165A], the pIC50 in assay [1] and in assay [2] was less than 6.00 in each case. As to `COC(=O)N1Cc2cc(Cl)ccc2-n2c(C3CC4(C3)CN(c3ncccn3)C4)nnc2C1C` (single isomer, unassigned) [Cpd 166A], the pIC50 in assay [1] and in assay [2] was less than 6.00 each time.

On to `CC(C)OC(=O)N1Cc2cc(Cl)ccc2-n2c(C3CC4(C3)CN(c3ncccn3)C4)nnc2C1C` (single isomer, unassigned) [Cpd 167A], for which the pIC50 in assay [1] and in assay [2] was less than 6.00 each time. For the compound `CCOC(=O)N1Cc2cc(Cl)ccc2-n2c(C3CC4(C3)CN(c3ncccn3)C4)nnc2C1C` (single isomer, unassigned) [Cpd 168A], the pIC50 in assay [1] and in assay [2] was less than 6.00 each time. Consider `CCOC(=O)N1Cc2cc(Cl)ccc2-n2c(C3CC4(C3)CN(c3ccc(F)cn3)C4)nnc2C1C` (single isomer, unassigned) [Cpd 169A], for which the pIC50 in assay [1] and in assay [2] was less than 6.00 in each case. For `COC(=O)N1Cc2cc(Cl)ccc2-n2c(C3CC4(C3)CN(c3ncc(F)cn3)C4)nnc2C1C` (single isomer, unassigned) [Cpd 170A], the negative-log IC50 (pIC50) was less than 6.00 in assay [1] and 6.00 to 6.30 in assay [2]. As to `CC1c2nnc(C3CC4(C3)CN(c3ncccn3)C4)n2-c2ccc(Cl)cc2CN1C(=O)OC1CC1` (single isomer, unassigned) [Cpd 171A], the negative-log IC50 (pIC50) in assay [1] and in assay [2] was less than 6.00 each time.

In the case of `CC1c2nnc(C3CC4(C3)CN(c3ncccn3)C4)n2-c2ccc(Cl)cc2CN1C(=O)OC1CC1` (single isomer, unassigned) [Cpd 171B], the pIC50 in assay [1] and in assay [2] was less than 6.00 in each case.

For the compound `CC1c2nnc(C3CC4(C3)CN(c3ccc(F)cn3)C4)n2-c2ccc(Cl)cc2CN1C(=O)C1(F)CC1` (single isomer, unassigned) [Cpd 174A], the negative-log IC50 (pIC50) in assay [1] and in assay [2] was less than 6.00 throughout.

For the compound `CC1c2nnc(C3CC4(C3)CN(c3ccc(F)cn3)C4)n2-c2ccc(Cl)cc2CN1C(=O)C(C)(C)F` (single isomer, unassigned) [Cpd 178A], the figures for the negative logarithm of the IC50 (pIC50) in assay [1] and in assay [2] were less than 6.00 and 6.30 to 7.00, respectively.

As for `CC1c2nnc(C3CC4(C3)CN(c3ccc(F)cn3)C4)n2-c2ccc(Cl)cc2CN1C` (single isomer, unassigned) [Cpd 179A], the pIC50 in assay [1] and in assay [2] was less than 6.00 each time. For the compound `CC1c2nnc(C3CC4(C3)CN(c3ccccn3)C4)n2-c2ccc(Cl)cc2CN1C(=O)C1(F)CC1` (single isomer, unassigned) [Cpd 181A], the pIC50 in assay [1] is less than 6.00; in assay [2] it was 6.30 to 7.00. Consider `CC1c2nnc(C3CC4(C3)CN(c3ccc(F)cn3)C4)n2-c2ccc(Cl)cc2CN1C(=O)OC1CC1` (single isomer, unassigned) [Cpd 191A], for which the negative logarithm of the IC50 (pIC50) in assay [1] and in assay [2] was less than 6.00 throughout. In the case of `CC1c2nnc(C3CC4(C3)CN(c3ncc(F)cn3)C4)n2-c2ccc(Cl)cc2CN1C(=O)OC1CC1` (single isomer, unassigned) [Cpd 192A], the pIC50 in assay [1] and in assay [2] was less than 6.00 each time. For the compound `CC(C)OC(=O)N1Cc2cc(Cl)ccc2-n2c(C3CC4(C3)CN(c3ncc(F)cn3)C4)nnc2C1C` (single isomer, unassigned) [Cpd 201A], the pIC50 in assay [1] and in assay [2] was less than 6.00 each time. Take `CC1c2nnc(C3CC4(C3)CN(c3ncccn3)C4)n2-c2ccc(Cl)cc2CN1C(=O)OC(CF)CF` (single isomer, unassigned) [Cpd 202A]: the pIC50 in assay [1] and in assay [2] was less than 6.00 in each case.

Regarding `CC1c2nnc(C3CC4(C3)CN(c3ccc(F)cn3)C4)n2-c2ccc(Cl)cc2CN1C(=O)OC(CF)CF` (single isomer, unassigned) [Cpd 203A], the pIC50 was less than 6.00 in assay [1] and 6.00 to 6.30 in assay [2]. Regarding `CN1Cc2cc(Cl)ccc2-n2c(nnc2[C@H]2CC[C@H](Oc3ccccn3)CC2)C1` [balovaptan, reference compound], the pIC50 in assay [1] (in vitro antagonist assay, reference compounds) was less than 6.00. `CN1Cc2cc(Cl)ccc2-n2c(nnc2C2CC3(C2)CN(c2ccc(F)cn2)C3)C1` [compound 1, 8-chloro-1-(2-(5-fluoropyridin-2-yl)-2-azaspiro[3.3]heptan-6-yl)-5-methyl-5,6-dihydro-4H-benzo[f][1,2,4]triazolo[4,3-a][1,4]diazepine]: the pIC50 in assay [1] and in assay [2] was less than 6.00 each time. In the case of `CN1Cc2cc(Cl)ccc2-n2c(nnc2C2CC3(C2)CN(c2ccccn2)C3)C1` [compound 2], the negative logarithm of the IC50 (pIC50) in assay [1] and in assay [2] was less than 6.00 throughout. For `CN1Cc2cc(Cl)ccc2-n2c(nnc2C2CC3(C2)CN(c2cnccn2)C3)C1` [compound 3], the pIC50 in assay [1] and in assay [2] was less than 6.00 throughout. With `CN1Cc2cc(Cl)ccc2-n2c(nnc2C2CC3(C2)CN(c2ncccc2F)C3)C1` [compound 4], the pIC50 in assay [1] and in assay [2] was less than 6.00 throughout.

Consider `CN1Cc2cc(Cl)ccc2-n2c(nnc2C2CC3(C2)CN(c2cccc(F)n2)C3)C1` [compound 8], for which the pIC50 in assay [1] and in assay [2] was less than 6.00 each time. Take `CN1Cc2cc(Cl)ccc2-n2c(nnc2C2CC3(C2)CN(C(=O)C2CC2)C3)C1` [compound 28]: the pIC50 in assay [1] and in assay [2] was less than 6.00 each time. In the case of `COCCN1Cc2cc(Cl)ccc2-n2c(nnc2C2CC3(C2)CN(c2ccccn2)C3)C1` [compound 39, 8-chloro-5-(2-methoxyethyl)-1-(2-(pyridin-2-yl)-2-azaspiro[3.3]heptan-6-yl)-5,6-dihydro-4H-benzo[f][1,2,4]triazolo[4,3-a][1,4]diazepine], the pIC50 in assay [1] and in assay [2] was less than 6.00 each time.

Regarding `Clc1ccc2c(c1)CN(C1CCC1)Cc1nnc(C3CC4(C3)CN(c3ccccn3)C4)n1-2` [compound 41], the values for the negative-log IC50 (pIC50) in assay [1] and in assay [2] were less than 6.00 and more than 7.00, respectively.
